Experimental data taken from BindingDB's records for patent US20240158355 (Baylor College of Medicine, 2024).

Key:
[1] = target: T1, Bromodomain testis-specific protein [287-359] (Homo sapiens, UniProt Q58F21); test: AlphaScreen Assay
T1 construct: 287-359
Description: (§1) No details are given.

[2] = target: T2, Bromodomain testis-specific protein [44-116] (UniProt Q58F21); test: AlphaScreen Assay
T2 construct: 44-116
Description: as §1

Cc1cc(N)ccc1-c1nn(C)c2ccc(-c3cncnc3)cc12 [US20240158355, Compound 76]
IC50 [1]: 9.48 µM
IC50 [2]: 5.44 µM
